Data reported in ChEMBL document CHEMBL5614394, “Novel pleuromutilin derivatives conjugated with phenyl-sulfide and boron-containing moieties as potent antibacterial agents against antibiotic-resistant bacteria” (Eur J Med Chem, 2024).
In brackets after ≈: the same amount, converted by molar mass.

These compounds were tested on Staphylococcus simulans (assay: Antibacterial activity against pleuromutilin-resistant Staphylococcus simulans isolate 55-1 harboring cfr+ genotype assessed as inhibition of visible growth of bacteria incubated for 24 hrs by CLSI protocol based broth-dilution method).
Assay type: functional

Row | Structure (SMILES) | MIC
1 | C=C[C@]1(C)C[C@@H](OC(=O)CSCCN(CC)CC)[C@]2(C)[C@H](C)CC[C@]3(CCC(=O)[C@H]32)[C@@H](C)[C@@H]1O [TIAMULIN] | > 32 µg/mL

The compounds below were run on Staphylococcus aureus (assay: Antibacterial activity against methicillin-resistant Staphylococcus aureus J1 harboring (lsa(E)+) genotype assessed as inhibition of visible growth of bacteria incubated for 24 hrs by CLSI protocol based broth-dilution method).
Assay type: functional

Row | Structure (SMILES) | MIC
2 | C=C[C@]1(C)C[C@@H](OC(=O)CSCCN(CC)CC)[C@]2(C)[C@H](C)CC[C@]3(CCC(=O)[C@H]32)[C@@H](C)[C@@H]1O [TIAMULIN] | > 32 µg/mL

What follows are compounds tested on Enterococcus faecium (assay: Antibacterial activity against pleuromutilin-resistant Enterococcus faecium 18SC29-2 harboring (lsa(E)-) genotype assessed as inhibition of visible growth of bacteria incubated for 24 hrs by CLSI protocol based broth-dilution method).
Assay type: functional

Row | Structure (SMILES) | MIC
3 | C=C[C@]1(C)C[C@@H](OC(=O)CSCCN(CC)CC)[C@]2(C)[C@H](C)CC[C@]3(CCC(=O)[C@H]32)[C@@H](C)[C@@H]1O [TIAMULIN] | 2 µg/mL (≈ 4.05 µM)

These compounds were tested on Enterococcus faecium (assay: Antibacterial activity against pleuromutilin-resistant Enterococcus faecium 18FJZ1-1 harboring (lsa(E)+) genotype assessed as inhibition of visible growth of bacteria incubated for 24 hrs by CLSI protocol based broth-dilution method).
Assay type: functional

Row | Structure (SMILES) | MIC
4 | C=C[C@]1(C)C[C@@H](OC(=O)CSCCN(CC)CC)[C@]2(C)[C@H](C)CC[C@]3(CCC(=O)[C@H]32)[C@@H](C)[C@@H]1O [TIAMULIN] | > 32 µg/mL
